Results: PubChem BioAssay AID2060358 (Molecular Pharmacology Branch, DTP, NCI, 2025)

Tested on: 254851-301-R-J1-PDC spheroids, viability % test/control
Experiment: Anticancer human tumor 254851-301-R-J1-PDC patient-derived colon carcinoma cell line growth inhibition [TAK]
Details: spheroids with HUVEC and MSC; for IC50: curve of first compound; for viability, T/C: stronger effect = lower value
Method in brief: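 Drug combinations, each paired with TAK-243 or ipatasertib, were tested on multi-cell spheroids of 60% malignant cells, 25% HUVEC and 15% hMSC. Top concentrations were at or near the clinical Cmax (10 microM if undetermined), decreasing by half-log; viability is given as % test/control.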

[1] = second compound 0.3 µM, first compound 0.00316 µM
[2] = second compound 0.3 µM, first compound 0.01 µM
[3] = second compound 0.3 µM, first compound 0.0316 µM
[4] = second compound 0.3 µM, first compound 0.1 µM
[5] = second compound 0.949 µM, first compound 0.00316 µM
[6] = second compound 0.949 µM, first compound 0.01 µM
[7] = second compound 0.949 µM, first compound 0.0316 µM
[8] = second compound 0.949 µM, first compound 0.1 µM
[9] = second compound 3 µM, first compound 0.00316 µM
[10] = second compound 3 µM, first compound 0.01 µM
[11] = second compound 3 µM, first compound 0.0316 µM
[12] = second compound 3 µM, first compound 0.1 µM
[13] = second compound 9.49 µM, first compound 0.00316 µM
[14] = second compound 9.49 µM, first compound 0.01 µM
[15] = second compound 9.49 µM, first compound 0.0316 µM
[16] = second compound 9.49 µM, first compound 0.1 µM
[17] = second compound 30 µM, first compound 0.00316 µM
[18] = second compound 30 µM, first compound 0.01 µM
[19] = second compound 30 µM, first compound 0.0316 µM
[20] = second compound 30 µM, first compound 0.1 µM
[21] = second compound 0.3 µM, first compound 0.316 µM
[22] = second compound 0.3 µM, first compound 1 µM
[23] = second compound 0.949 µM, first compound 0.316 µM
[24] = second compound 0.949 µM, first compound 1 µM
[25] = second compound 3 µM, first compound 0.316 µM
[26] = second compound 3 µM, first compound 1 µM
[27] = second compound 9.49 µM, first compound 0.316 µM
[28] = second compound 9.49 µM, first compound 1 µM
[29] = second compound 30 µM, first compound 0.316 µM
[30] = second compound 30 µM, first compound 1 µM
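Further: spheroids exposed to drugs for seven days before viability readout.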
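Wherever viability, T/C is given: 100% = DMSO vehicle control viability.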

Row | Compound | IC50 (second compound 0.3 µM) [µM] | IC50 (second compound 0.949 µM) [µM] | IC50 (second compound 3 µM) [µM] | IC50 (second compound 9.49 µM) [µM] | IC50 (second compound 30 µM) [µM] | viability, T/C [1] [%] | viability, T/C [2] [%] | viability, T/C [3] [%] | viability, T/C [4] [%] | viability, T/C [5] [%] | viability, T/C [6] [%] | viability, T/C [7] [%] | viability, T/C [8] [%] | viability, T/C [9] [%] | viability, T/C [11] [%] | viability, T/C [12] [%] | viability, T/C [15] [%] | viability, T/C [16] [%] | viability, T/C [19] [%] | viability, T/C [20] [%] | other results
1 | CC(C)n1nc(-c2ccc3oc(N)nc3c2)c2c(N)ncnc21 + CC(C)NCC(C(=O)N1CCN(c2ncnc3c2C(C)CC3O)CC1)c1ccc(Cl)cc1 | 0.0419 | 0.0311 | 0.0444 | 0.0357 | 0.0248 | 93.3 | 78.4 | 54.3 | 32.4 | 94.7 | 78.3 | 49.3 | 33.6 | 85.2 | 57.5 | 36.2 | 53 | 31.9 | 44.9 | 31.1 | viability, T/C (second compound 0.3 µM, first compound 0.000316 µM): 119%; viability, T/C (second compound 0.3 µM, first compound 0.001 µM): 101%; viability, T/C (second compound 0.949 µM, first compound 0.000316 µM): 102%; viability, T/C (second compound 0.949 µM, first compound 0.001 µM): 101%; viability, T/C (second compound 3 µM, first compound 0.000316 µM): 100%; viability, T/C (second compound 3 µM, first compound 0.001 µM): 105%; viability, T/C [10]: 72.7%; viability, T/C (second compound 9.49 µM, first compound 0.000316 µM): 96.6%; viability, T/C (second compound 9.49 µM, first compound 0.001 µM): 109%; viability, T/C [13]: 90.8%; viability, T/C [14]: 76.6%; viability, T/C (second compound 30 µM, first compound 0.000316 µM): 88.1%; viability, T/C (second compound 30 µM, first compound 0.001 µM): 86.5%; viability, T/C [17]: 84.5%; viability, T/C [18]: 69.6%
2 | COc1c(OCCCN2CCOCC2)ccc2c3n(c(=NC(=O)c4cnc(N)nc4)nc12)CCN3 + CC(C)NCC(C(=O)N1CCN(c2ncnc3c2C(C)CC3O)CC1)c1ccc(Cl)cc1 | > 1 | > 1 | > 1 | > 1 | > 1 | 114 | 105 | 88.2 | 78.1 | 104 | 106 | 92.5 | 76.3 | 111 | 95.5 | 82.7 | 101 | 82.4 | 84.2 | 71.5 | viability, T/C [21]: 63.7%; viability, T/C [22]: 67.6%; viability, T/C [23]: 60%; viability, T/C [24]: 65%; viability, T/C [10]: 108%; viability, T/C [25]: 76.8%; viability, T/C [26]: 67.3%; viability, T/C [13]: 99.1%; viability, T/C [14]: 100%; viability, T/C [27]: 75.8%; viability, T/C [28]: 74.4%; viability, T/C [17]: 81.5%; viability, T/C [18]: 85.1%; viability, T/C [29]: 69.8%; viability, T/C [30]: 59.9%
3 | Cc1nc(NC(=O)N2CCCC2C(N)=O)sc1-c1ccnc(C(C)(C)C(F)(F)F)c1 (stereo not given) + CC(C)NCC(C(=O)N1CCN(c2ncnc3c2C(C)CC3O)CC1)c1ccc(Cl)cc1 | > 10 | > 10 | > 10 | > 10 | > 10 | – | – | 117 | 102 | – | – | 106 | 114 | – | 113 | 101 | 105 | 106 | 82.5 | 99.3 | viability, T/C [21]: 109%; viability, T/C [22]: 89.4%; viability, T/C (second compound 0.3 µM, first compound 3.16 µM): 79.4%; viability, T/C (second compound 0.3 µM, first compound 10 µM): 73.4%; viability, T/C [23]: 93.6%; viability, T/C [24]: 99.5%; viability, T/C (second compound 0.949 µM, first compound 3.16 µM): 83.1%; viability, T/C (second compound 0.949 µM, first compound 10 µM): 69%; viability, T/C [25]: 98%; viability, T/C [26]: 94.6%; viability, T/C (second compound 3 µM, first compound 3.16 µM): 79.3%; viability, T/C (second compound 3 µM, first compound 10 µM): 73.9%; viability, T/C [27]: 101%; viability, T/C [28]: 97.3%; viability, T/C (second compound 9.49 µM, first compound 3.16 µM): 85%; viability, T/C (second compound 9.49 µM, first compound 10 µM): 74.8%; viability, T/C [29]: 88.4%; viability, T/C [30]: 79.4%; viability, T/C (second compound 30 µM, first compound 3.16 µM): 79.4%; viability, T/C (second compound 30 µM, first compound 10 µM): 69.4%
